From patent US20110028318A1, “HERBICIDAL COMPOUNDS BASED ON N-AZINYL-N'-PYRIDYLSULPHONYLUREAS” (Bayer CropScience AG, priority 2007, published 2011)

Experiments:
Echinochloa crus-galli = assay: Post-emergence herbicidal activity, ECHCG; format: in vivo; settings: dosage rate 80 g/ha, scored visually after approx. 3 weeks vs untreated controls
Experimental: (§1) Seeds of monocotyledonous or dicotyledonous weed plants or crop plants are placed in sandy loam in wood fiber pots, covered with soil and grown in the greenhouse under good growth conditions. 2 to 3 weeks after sowing, the test plants are treated in the one-leaf stage. The compounds according to the invention, which are formulated as wettable powders (WP), are then sprayed onto the green plant parts in the form of an aqueous suspension or emulsion with a water application rate of 600 I/ha (converted) with addition of 0.2% of wetter. After the test plants have been left to stand in the greenhouse for approximately 3 weeks under optimal growth conditions, the activity of the preparation is scored visually in comparison with untreated controls (herbicidal activity in percent (%): 100% activity=plants have died, 0% activity=like control plants).

Viola tricolor = assay: Post-emergence herbicidal activity, VIOTR; format: in vivo; settings: dosage rate 80 g/ha, scored visually after approx. 3 weeks vs untreated controls
Experimental: as §1

Stellaria media [1] = assay: Post-emergence herbicidal activity, STEME; format: in vivo; settings: dosage rate 80 g/ha, scored visually after approx. 3 weeks vs untreated controls
Experimental: as §1

Alopecurus myosuroides [2] = assay: Pre-emergence herbicidal activity, ALOMY; format: in vivo; settings: 80 g/ha, WP formulation, scored visually after approximately 3 weeks vs untreated controls (100% = plants have died)
Description: (§2) Seeds of monocotyledonous or dicotyledonous weed plants or crop plants are placed in sandy loam in wood fiber pots and covered with soil. The compounds according to the invention, which are formulated as wettable powders (WP) are then applied to the surface of the soil cover in the form of an aqueous suspension or emulsion with a water application rate of 600 I/ha (converted), with addition of 0.2% wetter. After the treatment, the pots are placed in the greenhouse and maintained under good growth conditions for the test plants. After approximately 3 weeks, the activity of the preparation is scored visually in comparison with untreated controls (herbicidal activity in percent (%): 100% activity=plants have died, 0% activity=like control plants).

Pharbitis purpurea = assay: Post-emergence herbicidal activity, PHBPU; format: in vivo, Pharbitis/Ipomoea purpurea; settings: dosage rate 80 g/ha, scored visually after approx. 3 weeks vs untreated controls
Experimental: as §1

Alopecurus myosuroides [3] = assay: Post-emergence herbicidal activity, ALOMY; format: in vivo; settings: dosage rate 80 g/ha, scored visually after approx. 3 weeks vs untreated controls
Experimental: as §1

Abutilon theophrasti = assay: Post-emergence herbicidal activity, ABUTH; format: in vivo; settings: dosage rate 80 g/ha, scored visually after approx. 3 weeks vs untreated controls
Experimental: as §1

Amaranthus retroflexus = assay: Post-emergence herbicidal activity, AMARE; format: in vivo; settings: dosage rate 80 g/ha, scored visually after approx. 3 weeks vs untreated controls
Experimental: as §1

Lolium multiflorum = assay: Post-emergence herbicidal activity, LOLMU; format: in vivo; settings: dosage rate 80 g/ha, scored visually after approx. 3 weeks vs untreated controls
Experimental: as §1

Matricaria inodora = assay: Pre-emergence herbicidal activity, MATIN; format: in vivo; settings: 80 g/ha, WP formulation, scored visually after approximately 3 weeks vs untreated controls (100% = plants have died)
Description: as §2

Stellaria media [4] = assay: Pre-emergence herbicidal activity, STEME; format: in vivo; settings: 80 g/ha, WP formulation, scored visually after approximately 3 weeks vs untreated controls (100% = plants have died)
Description: as §2

logp = format: physicochemical

Row | SMILES | herbicidal activity ECHCG (Echinochloa crus-galli) [%] | herbicidal activity VIOTR (Viola tricolor) [%] | herbicidal activity STEME (Stellaria media [1]) [%] | herbicidal activity in percent, ALOMY (Alopecurus myosuroides [2]) [%] | herbicidal activity PHBPU (Pharbitis purpurea) [%] | herbicidal activity ALOMY (Alopecurus myosuroides [3]) [%] | herbicidal activity ABUTH (Abutilon theophrasti) [%] | herbicidal activity AMARE (Amaranthus retroflexus) [%] | herbicidal activity LOLMU (Lolium multiflorum) [%] | herbicidal activity in percent, MATIN (Matricaria inodora) [%] | herbicidal activity in percent, STEME (Stellaria media [4]) [%] | melting point [°C] | logP (logp)
1 | CCC1CC(c2cccnc2S(=O)(=O)NC(=O)Nc2nc(C)nc(OC)n2)=NO1 (centres unmarked) [Ia-18] | 80 | – | – | – | – | – | – | – | – | – | – | – | –
2 | COc1cc(OC)nc(NC(=O)NS(=O)(=O)c2ncccc2C2=NOC(C)C2)n1 (centres unmarked) [Ia-11] | 100 | 90 | 100 | 90 | 90 | 90 | 90 | 100 | 100 | 80 | 80 | – | –
3 | COc1cc(C)nc(NC(=O)NS(=O)(=O)c2ncccc2C2=NOC(C)C2)n1 (centres unmarked) [Ia-15] | 80 | 80 | 80 | 80 | – | 90 | – | 90 | 80 | 80 | – | – | –
4 | COc1cc(C)nc(NC(=O)NS(=O)(=O)c2ncccc2C2=NOCC2)n1 [Ia-9] | – | – | 90 | – | 90 | 80 | 80 | – | 90 | – | 80 | – | –
5 | COc1cc(OC)nc(NC(=O)NS(=O)(=O)c2ncccc2C2=NOCC2)n1 [Ia-2] | 100 | 90 | 90 | 90 | 90 | 80 | 100 | 90 | 90 | 90 | 90 | – | –
6 | CCCC1CC(c2cccnc2S(=O)(=O)NC(=O)Nc2nc(OC)cc(OC)n2)=NO1 (centres unmarked) [Ia-21] | 80 | 80 | 80 | – | 80 | 80 | 80 | 80 | 80 | 80 | 80 | – | –
7 | COc1cc(OC)nc(NC(=O)NS(=O)(=O)c2ncccc2C2=NOC(C(C)C)C2)n1 (centres unmarked) [Ia-10] | 100 | 90 | 90 | 80 | 80 | 90 | 90 | 100 | 90 | 80 | 80 | – | –
8 | COc1nc(C)nc(NC(=O)NS(=O)(=O)c2ncccc2C2=NOCC2)n1 [Ia-7] | – | – | – | – | – | 80 | 80 | – | 90 | – | – | – | –
9 | COc1cc(C)nc(NC(=O)NS(=O)(=O)c2ncccc2C2=NOC(C(C)C)C2)n1 (centres unmarked) [Ia-22] | – | 80 | – | – | 80 | 80 | 80 | – | 80 | – | 100 | – | –
10 | COc1cc(OC)nc(NC(=O)NS(=O)(=O)c2ncccc2C2=NOC(C)(C)C2)n1 [Ia-13] | 90 | 90 | 100 | 90 | 90 | 90 | 90 | 90 | 90 | 80 | 80 | – | –
11 | COc1cc(Cl)nc(NC(=O)NS(=O)(=O)c2ncccc2C2=NOCC2)n1 [Ia-1, N-[(4-Chloro-6-methoxypyrimidin-2-yl)carbamoyl]-3-(4,5-dihydroisoxazol-3-yl)-pyridine-2-sulfonamide] | 100 | 80 | 90 | 90 | 100 | 80 | 90 | 90 | 90 | 90 | 90 | – | –
12 | CCCC1CC(c2cccnc2S(=O)(=O)NC(=O)Nc2nc(C)nc(OC)n2)=NO1 (centres unmarked) [Ia-23] | – | – | – | – | – | – | – | – | – | 80 | – | – | –
13 | Clc1ncccc1C1=NOCC1 [XIa-1, 2-Chloro-3-(4,5-dihydroisoxazol-3-yl)pyridine] | – | – | – | – | – | – | – | – | – | – | – | 183 to 185 | 0.97
14 | COc1nc(NC(=O)NS(=O)(=O)c2ncccc2C2=NOCC2)nc(OC)n1 [Ia-6] | – | – | – | – | – | – | – | 80 | 90 | – | – | – | –
15 | Cc1cc(C)nc(NC(=O)NS(=O)(=O)c2ncccc2C2=NOCC2)n1 [Ia-3] | 90 | 80 | 90 | 80 | 90 | 80 | 90 | 100 | 80 | 80 | 80 | – | –
16 | COc1cc(Cl)nc(NC(=O)NS(=O)(=O)c2ncccc2C2=NOC(C)(C)C2)n1 [Ia-14] | 80 | 90 | 80 | – | – | – | – | 90 | – | – | – | – | –
17 | CCC1CC(c2cccnc2S(=O)(=O)NC(=O)Nc2nc(Cl)cc(OC)n2)=NO1 (centres unmarked) [Ia-20] | 80 | 80 | 80 | 80 | – | 80 | – | 80 | 80 | – | – | – | –
18 | COc1cc(SC)nc(NC(=O)NS(=O)(=O)c2ncccc2C2=NOCC2)n1 [Ia-4] | 90 | 80 | 90 | 80 | 100 | 80 | 80 | 100 | – | 90 | 90 | – | –
19 | CCC1CC(c2cccnc2S(=O)(=O)NC(=O)Nc2nc(C)cc(OC)n2)=NO1 (centres unmarked) [Ia-19] | 80 | 80 | 80 | 80 | 80 | 90 | – | 80 | 80 | – | 80 | – | –
20 | CN(C)c1nc(NC(=O)NS(=O)(=O)c2ncccc2C2=NOCC2)nc(OCC(F)(F)F)n1 [Ia-8] | 80 | – | – | – | – | – | 80 | – | 90 | – | – | – | –
21 | CCC1CC(c2cccnc2S(=O)(=O)NC(=O)Nc2nc(OC)cc(OC)n2)=NO1 (centres unmarked) [Ia-24] | 100 | – | 90 | 90 | 90 | – | 80 | 80 | – | 90 | 90 | – | –
22 | COc1cc(Cl)nc(NC(=O)NS(=O)(=O)c2ncccc2C2=NOC(C)C2)n1 (centres unmarked) [Ia-16] | 80 | 80 | 100 | 80 | – | 80 | – | 90 | 90 | 80 | – | – | –
23 | CCCC1CC(c2cccnc2S(=O)(=O)NC(=O)Nc2nc(C)cc(OC)n2)=NO1 (centres unmarked) [Ia-17] | – | – | – | 90 | – | 80 | – | 80 | 80 | – | – | – | –
